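Dose response: 5 concentrations. Exposure: 48 h. Format: 96-well plates. Endpoint: linear interpolation; highest concentration if not reached. GI50: concentration for 50% inhibition of growth.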 Activity calls are given as the source filed them. Cut-off read from the data, not from the text of the source: active = GI50 up to about 1.1 µM and inactive = higher.
Experiments:
Test in all cases: DTP human tumour cell line panel, 48 h
[1] = tested on: DLD-1
[2] = tested on: DMS-273
[3] = tested on: HOP-18
[4] = tested on: KM-20L2
[5] = tested on: LXFL 529
[6] = tested on: M19-MEL
[7] = tested on: SNB-78
[8] = tested on: RXF 631
[9] = tested on: XF498

Measured: GI50

Cc1c(C(=O)NCCO)[n+]([O-])c2cc(Cl)ccc2[n+]1[O-]
inactive: [1] > 100 µM | [2] > 100 µM | [3] > 100 µM | [4] > 100 µM | [5] > 100 µM | [6] > 100 µM | [7] > 100 µM

CCOC(=O)NC(=O)c1cn(CCN2CCN(C(=O)NCCCCCCNC(=O)N3CCN(CCn4cc(C(=O)NC(=O)OCC)c(=O)[nH]c4=O)CC3)CC2)c(=O)[nH]c1=O
inactive: [2] > 100 µM | [3] > 100 µM | [4] > 100 µM | [5] > 100 µM | [6] > 100 µM | [8] > 100 µM | [7] > 100 µM | [9] > 100 µM

CC1=NN=C(NCCN(C)C)C/C1=C/c1ccccc1Cl
inactive: [1] > 100 µM | [2] > 100 µM | [3] 61.7 µM | [4] 58.3 µM | [5] > 100 µM | [6] > 100 µM | [8] 67.5 µM | [7] > 100 µM | [9] 77.3 µM

COC(=O)C(CC(C)=O)CS(=O)(=O)CC(=O)C(=O)Nc1cccc([N+](=O)[O-])c1 (stereo not given)
inactive: [1] > 100 µM | [2] > 100 µM | [3] > 100 µM | [4] > 100 µM | [5] > 100 µM | [6] > 100 µM | [8] > 100 µM | [7] > 100 µM | [9] 55.6 µM

CCOC(=O)c1ncn2c1[nH]c(=O)c1ccccc12
inactive: [2] > 100 µM | [4] > 100 µM | [5] > 100 µM | [6] > 100 µM | [7] > 100 µM | [9] > 100 µM

CC1=C(C(=O)Nc2ccccc2)C(c2ccc([N+](=O)[O-])cc2)C(C(=O)Nc2ccccc2)=C(C)N1
inactive: [1] 26.6 µM | [2] 24.4 µM | [4] 18.3 µM | [5] 17.4 µM | [6] 16.6 µM | [8] 21.2 µM | [7] 33.8 µM | [9] 15.1 µM

CC(C(=O)n1c2ccccc2c2ccccc21)N(c1ccccc1)c1ccccc1 (stereo not given)
inactive: [1] 17.8 µM | [2] 18.7 µM | [4] 18.9 µM | [5] 14.4 µM | [6] 18.5 µM | [7] 15.6 µM

C=CCOC(C)n1c(C)cc(=O)n(C(C)OCC=C)c1=O (stereo not given)
inactive: [1] > 100 µM | [2] > 100 µM | [3] > 100 µM | [4] > 100 µM | [5] > 100 µM | [6] > 100 µM | [7] > 100 µM

Nc1nc(N)c(N=O)c(Nc2ccc(Br)cc2)n1
inactive: [1] 10.4 µM | [2] 17.5 µM | [3] 11.2 µM | [4] 25.3 µM | [5] 15.3 µM | [6] 30.5 µM | [7] 41.5 µM | [9] 18.8 µM

CS/C(=N\C(=S)Nc1ccccc1)Nc1ccccc1
inactive: [2] > 10 µM | [4] 31 µM | [6] 11 µM | [7] 40.3 µM

Cc1cc2c(cc1C)[n+]([O-])c(-c1c(Cl)cccc1Cl)c(N)[n+]2[O-]
inactive: [1] 30.7 µM | [2] 32.1 µM | [3] 18.9 µM | [4] 40 µM | [5] 31.6 µM | [6] 34.9 µM | [8] 18.2 µM | [7] 43.9 µM

O=C1OC(=O)C2C3CCC(O3)C12 (stereo not given)
inactive: [1] > 100 µM | [2] > 100 µM | [3] > 100 µM | [5] > 100 µM | [6] > 100 µM | [7] > 100 µM | [9] > 100 µM

CC(Oc1cc2oc(=O)cc(-c3ccccc3)c2cc1Cl)C(=O)O (stereo not given)
inactive: [1] > 100 µM | [3] > 100 µM | [4] > 100 µM | [5] > 100 µM | [6] > 100 µM | [8] > 100 µM | [7] > 100 µM | [9] 33.5 µM

O=C(c1ccc(Cl)cc1)c1ccc(OCC(=O)N2CCN(c3ccccc3)CC2)cc1
inactive: [1] > 100 µM | [3] > 100 µM | [4] > 100 µM | [5] 52.7 µM | [6] > 100 µM | [7] 56.4 µM | [9] > 100 µM

O=C1OC(CC(=O)c2ccccc2Cl)C(Cl)=C1Cl (stereo not given)
inactive: [1] > 100 µM | [3] > 100 µM | [5] > 100 µM | [6] > 100 µM | [8] 62.4 µM | [7] 33 µM

COc1ccc(C(=O)C(c2ccc(OC)cc2)C2(O)C(=O)Nc3c(Cl)cc(Cl)cc32)cc1 (stereo not given)
inactive: [1] 19.2 µM | [2] 16.3 µM | [3] 20.1 µM | [4] 21.1 µM | [5] 15 µM | [7] 18.3 µM | [9] 22.4 µM

Reference: ChEMBL document CHEMBL1201862, “PubChem BioAssay data set” (2004)
